Test results taken from US20100130519A1 (priority 2007, published 2010).
Where two headings read alike, the source gives them in different places.

Assays:
[1] = system: HUVEC; assay: HUVEC assay, endothelial cell proliferation; format: cell-based; details: Homo sapiens
[2] = system: Calu-6 human lung tumour xenografts; assay: Calu-6 Human Lung Cancer Xenograft Model; format: in vivo; details: athymic mice, p.o. 24 days
Description: Experiments were conducted in female athymic mice (Swiss nu/nu genotype, ≧6 weeks of age). Calu-6 human lung tumour xenografts were established in mice by injecting 1×10^6 cells ([…] containing 50% Matrigel®) subcutaneously in the dorsal flank. Tumour volumes were assessed using bilateral Vernier calliper measurement at least twice weekly and calculated using the formula (length×width)×√(length×width)×(π/6), where length was taken to be the longest diameter across the tumour and width the corresponding perpendicular. Mice were randomised into 4 treatment groups (10 mice/group) when the mean tumour volume reached approximately 0.2 cm^3. […] (0.5% w/v Methocel/0.1% w/v Tween 80).
Tumour growth inhibition from the start of treatment was assessed by comparison of the differences in tumour volume between control and treated groups.

[3] = system: Calu-6 tumour xenograft; assay: in vivo solid tumour model of WO 00/47212, Calu-6 tumour xenograft; details: once-daily oral, 28 days
[4] = target: c-Kit (stem cell factor receptor tyrosine kinase) (Homo sapiens, UniProt P10721); assay: c-Kit inhibition; format: biochemical
c-Kit (stem cell factor receptor tyrosine kinase), sequence (P10721 26-976): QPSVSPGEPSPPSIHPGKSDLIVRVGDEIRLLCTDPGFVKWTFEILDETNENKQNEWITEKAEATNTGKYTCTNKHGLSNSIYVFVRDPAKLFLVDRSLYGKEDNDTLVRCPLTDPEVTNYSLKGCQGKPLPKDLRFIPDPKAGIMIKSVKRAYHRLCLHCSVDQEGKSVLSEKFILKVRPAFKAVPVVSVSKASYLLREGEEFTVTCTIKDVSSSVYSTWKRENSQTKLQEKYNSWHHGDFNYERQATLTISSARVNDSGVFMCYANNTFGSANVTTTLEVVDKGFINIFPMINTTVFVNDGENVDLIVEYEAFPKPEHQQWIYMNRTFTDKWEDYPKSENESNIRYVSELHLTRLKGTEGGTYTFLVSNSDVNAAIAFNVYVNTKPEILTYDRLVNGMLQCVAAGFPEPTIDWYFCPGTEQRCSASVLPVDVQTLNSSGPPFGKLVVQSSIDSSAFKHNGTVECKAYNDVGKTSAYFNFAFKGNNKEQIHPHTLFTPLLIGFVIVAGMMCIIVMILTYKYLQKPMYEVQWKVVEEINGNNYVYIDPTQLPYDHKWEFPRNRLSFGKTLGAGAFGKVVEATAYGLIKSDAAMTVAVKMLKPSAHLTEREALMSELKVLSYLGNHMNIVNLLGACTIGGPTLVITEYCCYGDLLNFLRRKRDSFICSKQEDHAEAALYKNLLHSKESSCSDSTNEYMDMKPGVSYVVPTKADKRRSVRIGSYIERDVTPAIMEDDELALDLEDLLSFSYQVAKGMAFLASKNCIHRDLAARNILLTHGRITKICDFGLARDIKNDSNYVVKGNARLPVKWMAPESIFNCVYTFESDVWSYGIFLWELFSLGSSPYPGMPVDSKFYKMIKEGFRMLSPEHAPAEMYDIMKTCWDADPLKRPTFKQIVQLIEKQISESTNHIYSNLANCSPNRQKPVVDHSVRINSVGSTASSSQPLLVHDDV

| Compound | IC50 ([1]; VEGF-stimulated, read-out: IC50, VEGF-stimulated endothelial cell proliferation) [nM] | IC50 ([1]; basal (no VEGF stimulation), read-out: IC50, basal endothelial cell proliferation) [nM] | tumour growth inhibition ([2]; AZD2171 1.5 mg/kg once daily alone) [%] | inhibition of growth of Calu-6 tumour xenograft ([3]; 1.5 mg/kg/day, P<0.01) [%] | inhibition of growth of Calu-6 tumour xenograft ([3]; 3 mg/kg/day, P<0.0001) [%] | inhibition of growth of Calu-6 tumour xenograft ([3]; 6 mg/kg/day, P<0.0001) [%] | inhibition of c-Kit [4] | tumour growth inhibition ([2]; AZD6244 3 mg/kg twice daily alone) [%] |
| --- | --- | --- | --- | --- | --- | --- | --- | --- |
| COc1cc2c(Oc3ccc4[nH]c(C)cc4c3F)ncnc2cc1OCCCN1CCCC1 [AZD2171, 4-(4-fluoro-2-methyl-1H-indol-5-yloxy)-6-methoxy-7-(3-(pyrrolidin-1-yl)propoxy)quinazoline] | 0.4 ± 0.2 | > 500 | 47 | 49 | 69 | 91 | inhibits |  |
| Cn1cnc2c(F)c(Nc3ccc(Br)cc3Cl)c(C(=O)NOCCO)cc21 [AZD6244, 6-(4-Bromo-2-chloro-phenylamino)-7-fluoro-3-methyl-3H-benzoimidazole-5-carboxylic acid (2-hydroxy-ethoxy)-amide] |  |  |  |  |  |  |  | 44 |
